Marks after values point to notes of the source that are not given here.
Tests used:
[1] = test system: HCT116 colon carcinoma cell line; assay: Combination studies, MTT assay, Combination Index; format: cell-based
Procedure: Cell lines and Cell Culture: HCT116 and NCI-H460 cell lines were obtained from ATCC. SKOV3(p53−/−) and SKOV3(p53+/+) were obtained from the lab of Dr. George Stark of the Lerner Institute of the Cleveland Clinic. All cell lines were cultured in RPMI media supplemented with 10% FBS 1% Sodium Bicarbonate solution and 1% Antibiotic Solution (Cellgro).
MTT assay: Cells were plated at 4000 cells per well (except SKOV3 (p53−/−) which were plated at 8000 cells per well) in a 96 well plate, incubated for 24 hours and then treated with compound. Compound treatment lasted 72 hours. Cells were then incubated with 5% MTT for 1-2 hours, and lysed. MTT was colorimetrically read at 570 nm. The fraction of dead cells was determined by the following formula: Fraction of Dead cells=1−[Abs of sample well−Avg(Abs of no cell control)]/[Avg(Abs of DMSO only control)−Avg(abs of no cell control)]
Scheduling studies: When compounds were dosed with a schedule that included a washout, cells were washed with 100 μl of fresh warm media for 30 minutes, followed by another wash after 90 minutes.
Statistical Analysis: The data (Fraction of Dead cells) was analyzed using Calculsyn.V2 (Biosoft) and is herein represented as the value of the Combination Index at Fraction affected (Fa)=0.5. All data is shown with error bars indicating the 95% confidence intervals of the mean value.
A combination is said to be additive if it yields a Combination Index of 0.85-1.2. A combination is said to be synergistic if it yields a Combination Index less than 0.85 and a combination is said to be antagonistic if it yields a Combination Index of more than 1.2.

[2] = test system: HCT-116 cells treated with 2 mM caffeine; assay: Timing of apoptosis (caspase-3 activation); format: cell-based; settings: Cell Line Caffeine (HCT-116, 2 mM caffeine); dosed at 30 fold above the EC50 for cytotoxicity
[3] = test system: LM3-Jck human malignant lymphoma tumor; assay: LM3-Jck xenograft model; format: in vivo, nude mice; settings: for IR (%) (tumor inhibition rate): LM3-JcK, q7d X3, IV; for Survival Ratio: nude, mouse, in vivo, iv, 21 days
Procedure: LM3-Jck human malignant lymphoma tumor lobes (2-3 mm square) were transplanted subcutaneously into nude mice. Tumors were allowed to grow to approximately 7-14 mm in diameter. […] Acceptable toxicity was defined as a mean group weight loss of 30% or less and not more than one toxic death among 6 treated animals. Anti-tumor activities of the drugs were assessed 21 days after the start of administration.

[4] = co-dosed, or dosed with 24 hours delay, HCT116

CN[C@H]1CN(c2ccc3c(=O)c(C(=O)O)cn(-c4nccs4)c3n2)C[C@@H]1OC [SNS-595, (+)-1,4-dihydro-7-[(3S,4S)-3-methoxy-4-(methylamino)-1-pyrrolidinyl]-4-oxo-1-(2-thiazolyl)-1,8-naphthyridine-3-carboxylic acid]
combination indices ([1]; SNS-595 dosed simultaneously with various cytotoxics, HCT116, Fa=0.5): significantly synergistic or at least additive | combination effect with docetaxel [1, 4]: might have been antagonistic | combination effect with gemcitabin [1, 4]: might have been antagonistic | combination effect with docetaxel or gemcitabin ([1]; treated with the first agent, washed and then treated with the second agent (2 hr wash and 24 hr wash), HCT116): Additivity or possibly synergy | Timing of apoptosis: fraction of cell cycle to achieve 50% maximal caspase-3 activation [2]: 0.25 | antitumor activity against LM-3 Jck malignant lymphoma ([3]; 20 and 25 mg/kg): strong antitumor activity with complete tumor regressions | IR (%) (tumor inhibition rate) ([3]; 20 mg/kg): 98.9* % | IR (%) (tumor inhibition rate) ([3]; 25 mg/kg): 98.5* % | Survival Ratio ([3]; 20 mg/kg): 6/6 | Survival Ratio ([3]; 25 mg/kg): 6/6
